One test has as its system OV90. Kind of test: drug sensitivity score (DSS) from 5-point dose-response viability curve (DSS (area-under-curve based score)); higher = more sensitive (stronger growth inhibition or killing); extreme values may be limits of the assay. As to conditions: exposure time: 72 h; concentration range: 5 concentrations over 10,000-fold range. In short, it runs like this:
(§1)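 Drug sensitivity scores were calculated in Breeze software for each cell line and drug pair; higher scores indicate more sensitivity. A score of zero indicates no response. The underlying assay used 384-well plates: drugs were placed by an Echo 550 acoustic dispenser at five concentrations spanning a 10,000-fold range, 1,500 ovarian cancer or normal ovarian cells were added per well, and cells were kept 3 days at 37°C, 5% CO2. Viability was then measured with CellTiter-Glo luminescence on a PHERAstar FS.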
The compound `CN1CC[C@H](c2c(O)cc(O)c3c(=O)cc(-c4ccccc4Cl)oc23)[C@H](O)C1` [Alvocidib] had a drug sensitivity score of 14.7.

As for `O=C1NC(=O)[C@@H](c2cn3c4c(cccc24)CCC3)[C@@H]1c1c[nH]c2ccccc12` [Tivantinib], the drug sensitivity score is 2.8.

With `C[C@@H](Nc1cc(F)cc(F)c1)c1cc(C(=O)N(C)C)cc2c(=O)cc(N3CCOCC3)oc12` [AZD-8186], the drug sensitivity score worked out at 0.1.

For `O=C1Cc2cc(C(=O)NC3C[C@H]4CC[C@@H](C3)N4S(=O)(=O)CC3CCN(CCCC(F)(F)F)CC3)c(Cl)cc2N1` (some centres not stated), the drug sensitivity score is 0.6.

Take `C/C(=C\c1csc(C)n1)[C@@H]1C[C@@H]2O[C@]2(C)CCC[C@H](C)[C@H](O)[C@@H](C)C(=O)C(C)(C)[C@@H](O)CC(=O)N1` [Ixabepilone]: the drug sensitivity score was 2.4.

In turn, `COc1ccc(COc2cc3oc(=O)c4cc(C(C)O)ccc4c3cc2OC)cc1` (configuration not stated) [Palomid-529] returned a drug sensitivity score of 0.8.

`Nc1ncn([C@@H]2O[C@H](CO)[C@@H](O)[C@H]2O)c(=O)n1` [Azacitidine] gave a drug sensitivity score of 3.8.

The compound `Cc1nn(C)c(COc2ccc(N3CCN(S(=O)(=O)N(C)C)CC3)cc2)c1-c1cccc2c(CCCOc3cccc4ccccc34)c(C(=O)O)n(CCN3CCOCC3)c12` gave a drug sensitivity score of 5.7.

`C=C1C[C@@H]2[C@H](CC[C@]3(C)C(=O)CC[C@@H]23)[C@@]2(C)C=CC(=O)C=C12` [Exemestane] displayed a drug sensitivity score of 0.4.

`C[C@@H]1C=C2C(=O)O[C@@H]3CC[C@H](C1)[C@]23O` [Galiellalactone] displayed a drug sensitivity score of 7.1.

`Cn1c(Nc2ccc(C(F)(F)F)cc2)nc2cc(Oc3ccnc(-c4ncc(C(F)(F)F)[nH]4)c3)ccc21` [NVP-RAF265]: the drug sensitivity score was 4.2.

Turning to `Cn1ncc(Cl)c1-c1cc(C(=O)N[C@H](CN)Cc2ccc(F)c(F)c2)oc1Cl` [Uprosertib], the drug sensitivity score is 0.7.

`CC1=C2C[C@H]3[C@@H](CC[C@@H]4C[C@H](NS(C)(=O)=O)CC[C@@]43C)[C@@H]2CC[C@@]2(C1)O[C@@H]1C[C@H](C)CN[C@H]1[C@H]2C` [Saridegib] had a drug sensitivity score of 0.

In turn, `COc1cc2c(Oc3ccc(NC(=O)C4(C(=O)Nc5ccc(F)cc5)CC4)cc3F)ccnc2cc1OCCCN1CCOCC1` [Foretinib] showed a drug sensitivity score of 3.8.

Compound `COCCOc1cnc2ccn([C@H](C)c3nnc4c(F)cc(-c5cnn(C)c5)cn34)c(=O)c2c1` [AMG-337] yielded a drug sensitivity score of 0.

As for `Nc1ccccc1NC(=O)c1ccc(CNC(=O)OCc2cccnc2)cc1` [Entinostat], the drug sensitivity score turned out to be 7.4.

The next test has as its system OVCAR5. The test is described as above. To be noted: exposure time: 72 h; concentration range: 5 concentrations over 10,000-fold range. In short, it runs like this: as §1
As for `Cc1cnc(-c2ccccc2C(C)C)nc1NCc1ccc(-n2ccnn2)cc1` [ML323], the drug sensitivity score turned out to be 0.

In turn, `Cc1ccc(C(=O)Nc2cccc(C(F)(F)F)c2)cc1Nc1nc(-c2cccnc2)nc2c1cnn2C` [NVP-BHG712] displayed a drug sensitivity score of 8.8.

With `COc1cc2c(cc1OCCCN1CCCC1)N=C(N)C21CCC1` [A-366], the drug sensitivity score was determined as 0.4.

`CS(=O)(=O)c1ccc(C(=O)Nc2ccc(Cl)c(-c3ccccn3)c2)c(Cl)c1` [Vismodegib] returned a drug sensitivity score of 0.1.

Consider `COc1cc2c(Oc3ccc4[nH]c(C)cc4c3F)ncnc2cc1OCCCN1CCCC1` [Cediranib], for which the drug sensitivity score was determined as 0.

`CCNC(=O)c1noc(-c2cc(C(C)C)c(O)cc2O)c1-c1ccc(CN2CCOCC2)cc1` [Luminespib]: the drug sensitivity score came to 15.2.

Compound `Cc1cnc(Nc2ccc(OCCN3CCCC3)cc2)nc1Nc1cccc(S(=O)(=O)NC(C)(C)C)c1` [Fedratinib] returned a drug sensitivity score of 7.2.

`CNC(=O)c1ccc(C)c(-n2c(C)cc(OCc3ccc(F)cc3F)c(Br)c2=O)c1` registered a drug sensitivity score of 0.6.

Compound `Cc1nc(Nc2n[nH]c3c2CN(C(=O)N[C@H](CN(C)C)c2ccccc2)C3(C)C)c2sccc2n1` yielded a drug sensitivity score of 14.9.

As to `CCN(CC)Cc1ccc2cc(COC(=O)Nc3ccc(C(=O)NO)cc3)ccc2c1` [Givinostat], the drug sensitivity score worked out at 10.8.

As for `CC(C)(C)Cn1c(N)nc2ccc(-c3[nH]c(C(C)(C)C)nc3-c3ccc(F)cc3)nc21` [Ralimetinib], the drug sensitivity score was determined as 4.3.

In turn, `COc1cc2nccc(Oc3ccc(NC(=O)NC4CC4)c(Cl)c3)c2cc1C(N)=O` [Lenvatinib] showed a drug sensitivity score of 0.

For the compound `S=c1[nH]cnc2nc[nH]c12` [Mercaptopurine], the drug sensitivity score is 7.3.

As for `CNc1nc(Nc2cn(C(C)(C)C#N)nc2C)ncc1C(F)(F)F` [GNE-0877], the drug sensitivity score turned out to be 0.

In turn, `COc1cc2nccc(Oc3ccc(NC(=O)C4(C(=O)Nc5ccc(F)cc5)CC4)cc3)c2cc1OC` [Cabozantinib] came in with a drug sensitivity score of 1.5.

In the case of `CN1CC[C@H](c2c(O)cc(O)c3c(=O)cc(-c4ccccc4Cl)oc23)[C@H](O)C1` [Alvocidib], the drug sensitivity score was 16.7.

Compound `O=C1NC(=O)[C@@H](c2cn3c4c(cccc24)CCC3)[C@@H]1c1c[nH]c2ccccc12` [Tivantinib] yielded a drug sensitivity score of 4.

Compound `C[C@@H](Nc1cc(F)cc(F)c1)c1cc(C(=O)N(C)C)cc2c(=O)cc(N3CCOCC3)oc12` [AZD-8186] yielded a drug sensitivity score of 1.9.

Compound `O=C1Cc2cc(C(=O)NC3C[C@H]4CC[C@@H](C3)N4S(=O)(=O)CC3CCN(CCCC(F)(F)F)CC3)c(Cl)cc2N1` (some centres not stated) came in with a drug sensitivity score of 0.

Consider `C/C(=C\c1csc(C)n1)[C@@H]1C[C@@H]2O[C@]2(C)CCC[C@H](C)[C@H](O)[C@@H](C)C(=O)C(C)(C)[C@@H](O)CC(=O)N1` [Ixabepilone], for which the drug sensitivity score was determined as 4.5.

In turn, `COc1ccc(COc2cc3oc(=O)c4cc(C(C)O)ccc4c3cc2OC)cc1` (configuration not stated) [Palomid-529] returned a drug sensitivity score of 0.

Turning to `Nc1ncn([C@@H]2O[C@H](CO)[C@@H](O)[C@H]2O)c(=O)n1` [Azacitidine], the drug sensitivity score worked out at 2.2.

In turn, `Cc1nn(C)c(COc2ccc(N3CCN(S(=O)(=O)N(C)C)CC3)cc2)c1-c1cccc2c(CCCOc3cccc4ccccc34)c(C(=O)O)n(CCN3CCOCC3)c12` registered a drug sensitivity score of 5.2.

`C=C1C[C@@H]2[C@H](CC[C@]3(C)C(=O)CC[C@@H]23)[C@@]2(C)C=CC(=O)C=C12` [Exemestane] came in with a drug sensitivity score of 0.

Compound `C[C@@H]1C=C2C(=O)O[C@@H]3CC[C@H](C1)[C@]23O` [Galiellalactone] displayed a drug sensitivity score of 7.6.

In turn, `Cn1c(Nc2ccc(C(F)(F)F)cc2)nc2cc(Oc3ccnc(-c4ncc(C(F)(F)F)[nH]4)c3)ccc21` [NVP-RAF265] had a drug sensitivity score of 0.4.

For the compound `Cn1ncc(Cl)c1-c1cc(C(=O)N[C@H](CN)Cc2ccc(F)c(F)c2)oc1Cl` [Uprosertib], the drug sensitivity score is 0.9.

`CC1=C2C[C@H]3[C@@H](CC[C@@H]4C[C@H](NS(C)(=O)=O)CC[C@@]43C)[C@@H]2CC[C@@]2(C1)O[C@@H]1C[C@H](C)CN[C@H]1[C@H]2C` [Saridegib] yielded a drug sensitivity score of 0.

In turn, `COc1cc2c(Oc3ccc(NC(=O)C4(C(=O)Nc5ccc(F)cc5)CC4)cc3F)ccnc2cc1OCCCN1CCOCC1` [Foretinib] showed a drug sensitivity score of 5.3.

For the compound `COCCOc1cnc2ccn([C@H](C)c3nnc4c(F)cc(-c5cnn(C)c5)cn34)c(=O)c2c1` [AMG-337], the drug sensitivity score amounted to 0.

On to `Nc1ccccc1NC(=O)c1ccc(CNC(=O)OCc2cccnc2)cc1` [Entinostat], for which the drug sensitivity score was found to be 9.9.

(Values after the supplement of paper PMC11616607.)
